The values that follow come from patent US20260108526A1, “BIOMARKER FOR TREATMENT OF SOLID CANCER WITH IMIDAZO[4,5-b]PYRIDINE DERIVATIVE” (CHORDIA THERAPEUTICS INC., priority 2022, published 2026).

Assay [1] relates to 3T3 cells with MYCC WT, Q37del or S146L introduced (comparative control GFP or KRASG12D). In words: Drug sensitivity evaluation by MANO method, 3T3 cells with cancer-related genes introduced. As to conditions: versus GFP or KRASG12D. The assay is classed as cell-based, mouse. The protocol: The present evaluation was carried out as follows with a conventional procedure of the MANO method described in International Publication No. WO 2018/181863.
HEK (Human Embryonic Kidney) 293 cells and mouse 3T3 fibroblasts were obtained from ATCC (American Type Culture Collection), and maintained with Dulbecco's modified Eagle's medium F-12 (DMEM-F12) supplemented with 10% FBS (both from Thermo Fisher Scientific, Walthman, MA). […]
The recombinant plasmid prepared as above was introduced into HEK293 cells together with a packaging plasmid (Takara Bio Inc., Shiga, Japan), giving recombinant retroviral particles. […] The transformation of the cells was evaluated by phase-contrast microscopy or staining with Giemsa solution. […]
The PCR product after amplification was purified with AMPurebeads (Beckman Coulter, Inc., Brea, CA). […] The quality of the library was evaluated with a Qubit 2.0 Fluorometer (Thermo Fisher Scientific) and an Agilent2200 Tape Station system. The library was sequenced by using an Illumina MiSeq (300 cycles) with a Reagent Kit V2 to produce paired-end reads of 150 bp. These sequence reads included the following sequence containing the barcode sequence: 5′-[…]-3′ (wherein N represents any nucleotide) and the complementary sequence. The amount of each mutant was estimated by counting the number of reads for the barcode sequence. […]

Assay [2] deals with human-cancer-patient-derived tumors grouped by MYCC CNV. In words: Mouse subcutaneous transplantation models with human-cancer-patient-derived tumors, mean over models. The assay is classed as in vivo. Conditions: 25 mg/kg. The source says: Among mouse subcutaneous transplantation models with different human-cancer-patient-derived tumors, which had been established by National Cancer Center Research Institute, seven models in total with five cancer species of ovarian cancer, lung cancer, gastric cancer, breast cancer, and large intestine cancer, were used for examination in the present test. For these models, results of measurement of MYCC gene amplification have been obtained by National Cancer Center Research Institute.
A tumor piece in the form of a 2- to 3-mm cube was subcutaneously transplanted into the abdomen of each 6- to 11-week-old female NOG mouse. Calipers were used in measuring tumor volume, which was calculated from the calculation formula: tumor volume=(tumor major axis×tumor minor axis×tumor minor axis)/2. When the tumor volumes reached approximately 140 to 230 mm^3, the mice were grouped into two groups each consisting of two to four mice. Compound A was orally administered in an intermittent manner according to a schedule in which a twice-daily dose of 25 mg/kg was administered twice a week for 14 or 28 days. To a control group, 0.5% methylcellulose solution was orally administered. After the grouping, measurement of tumor volume was performed twice a week. T/C (%) on day 14 or 28 was used as an index of antitumor effect.

Consider `COc1ncnn2ccc(-c3cnc4nc(C)n(Cc5nnc([C@@H](C)F)o5)c4c3)c12` [compound A], for which the “growth-inhibitory effect (IC90 lower than comparative control)” value in assay [1] is given as “particularly strong growth-inhibitory effect”. Besides, the figures for the “mean T/C” value in assay [2] (four models with amplification of the MYCC gene (MYCC CNV>2)) and in assay [2] (three models without c-Myc gene amplification (MYCC CNV=2)) were −44.1% and −21.3%, respectively.
